Values of other authors, collected in patent EP1694242B1, “PROCESS FOR MAKING PHARMACEUTICAL 7-(2-TRIMETHYLSILYLETHYL) CAMPTOTHECIN FORMULATIONS” (BIONUMERIK PHARMACEUTICALS, INC., priority 2003, dated 2005).

Conditions: fraction of the potency of the lactone form; background statement

Compound: CC[C@@](O)(C(=O)O)c1cc2n(c(=O)c1CO)Cc1cc3ccccc3nc1-2 [carboxylate form of CPT]
- antitumor potency of the carboxylate form relative to the lactone form of CPT: one-tenth
